These results are taken from the NIST ThermoML archive (doi:10.1021/je0256481).

The data set in a line: activity coefficient (dimensionless); of the first substance listed, at infinite dilution; xn = mol fraction of the nth substance listed. To be noted: Liquid, x1 = 0.

Numbers after ± are expanded uncertainties.

`C=CCCCCC` [1-heptene] + CCCCCCn1cc[n+](C)c1.F[P-](F)(F)(F)(F)F: the activity coefficient by setting is: (298.15 K) 15.3 ± 1.4; (313.15 K) 13.8 ± 1.3; (323.15 K) 12.4 ± 1.1.

For the molecule `C#CCCCCC` [1-heptyne] + CCCCCCn1cc[n+](C)c1.F[P-](F)(F)(F)(F)F, the activity coefficient amounted to 4.03 ± 0.37 (313.15 K) and 4.07 ± 0.37 (323.15 K).

On to `C#CCCCC` [1-hexyne] + CCCCCCn1cc[n+](C)c1.F[P-](F)(F)(F)(F)F, for which the activity coefficient (313.15 K) worked out at 2.78 ± 0.25 and the activity coefficient (323.15 K) stood at 2.82 ± 0.26.

In the case of `C#CCCCCCC` [1-octyne] + CCCCCCn1cc[n+](C)c1.F[P-](F)(F)(F)(F)F, the activity coefficient by setting is: (313.15 K) 5.86 ± 0.54; (323.15 K) 5.81 ± 0.53.

With `c1ccccc1` [benzene] + CCCCCCn1cc[n+](C)c1.F[P-](F)(F)(F)(F)F, the activity coefficient (298.15 K) came out at 1.03 ± 0.05, the activity coefficient (313.15 K) worked out at 1.04 ± 0.06 and the activity coefficient (323.15 K) is 1.07 ± 0.06.

Consider `C1CCCCCC1` [cycloheptane] + CCCCCCn1cc[n+](C)c1.F[P-](F)(F)(F)(F)F, for which the activity coefficient is 14.2 ± 1.3 (313.15 K) and 11.8 ± 1.1 (323.15 K).

With `C1CCCCC1` [cyclohexane] + CCCCCCn1cc[n+](C)c1.F[P-](F)(F)(F)(F)F, the activity coefficient is 12.7 ± 1.2 (298.15 K), 10.6 ± 0.97 (313.15 K) and 9.38 ± 0.86 (323.15 K).

Consider `C1CCCCCCC1` [cyclooctane] + CCCCCCn1cc[n+](C)c1.F[P-](F)(F)(F)(F)F, for which the activity coefficient reads like this: (313.15 K) 18.7 ± 1.7; (323.15 K) 12.2 ± 1.1.

Regarding `C1CCCC1` [cyclopentane] + CCCCCCn1cc[n+](C)c1.F[P-](F)(F)(F)(F)F, the activity coefficient by setting is: (298.15 K) 8.53 ± 0.78; (313.15 K) 7.21 ± 0.66; (323.15 K) 6.08 ± 0.56.

As to `CCCCCCC` [heptane] + CCCCCCn1cc[n+](C)c1.F[P-](F)(F)(F)(F)F, the activity coefficient is 30.6 ± 2.8 (298.15 K), 25.7 ± 2.4 (313.15 K) and 22.2 ± 2 (323.15 K).

With `C=CCCCC` [hex-1-ene] + CCCCCCn1cc[n+](C)c1.F[P-](F)(F)(F)(F)F, the activity coefficient (298.15 K) is 10.4 ± 0.96, the activity coefficient (313.15 K) came out at 9.09 ± 0.83 and the activity coefficient (323.15 K) turned out to be 7.88 ± 0.72.

With `CCCCCC` [hexane] + CCCCCCn1cc[n+](C)c1.F[P-](F)(F)(F)(F)F, the activity coefficient came out at 22.5 ± 5.4 (298.15 K), 19.2 ± 4.4 (313.15 K) and 15 ± 3 (323.15 K).

Take `CO` [methanol] + CCCCCCn1cc[n+](C)c1.F[P-](F)(F)(F)(F)F: the activity coefficient by setting is: (298.15 K) 1.94 ± 0.17; (313.15 K) 1.6 ± 0.13; (323.15 K) 1.44 ± 0.11.

For the molecule `C=CCCCCCC` [oct-1-ene] + CCCCCCn1cc[n+](C)c1.F[P-](F)(F)(F)(F)F, the activity coefficient is 21.9 ± 2 (298.15 K), 19.5 ± 1.8 (313.15 K) and 18 ± 1.7 (323.15 K).

Regarding `CCCCCCCC` [octane] + CCCCCCn1cc[n+](C)c1.F[P-](F)(F)(F)(F)F, the activity coefficient turned out to be 44.7 ± 4.2 (298.15 K), 37.1 ± 3.5 (313.15 K) and 32 ± 3 (323.15 K).

Consider `CCCCC` [pentane] + CCCCCCn1cc[n+](C)c1.F[P-](F)(F)(F)(F)F, for which the activity coefficient was 13.7 ± 2.7 (298.15 K), 12.2 ± 2.4 (313.15 K) and 8.48 ± 1.4 (323.15 K).
